According to patent US20100209345A1, “Fluorinated Ligands for Targeting Peripheral Benzodiazepine Receptors” (Australian Nuclear Science & Technology Organisation, priority 2006, published 2010):

Experiment: Biodistribution of 18F-labelled tracers in rats
Type: in vivo
Outline: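 Sprague-Dawley rats received 18F tracer, and brain and peripheral tissues were analysed at 15 and 30 min and 1 and 4 h post-injection. For specificity, rats were pretreated 5 min beforehand with PK11195 or Ro 5-4864 (PBR) or flumazenil (CBR), each at 1 mg/kg.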

[1] = SD rats, 15 min, decay correction not stated
[2] = SD rats, 4 hours, decay correction not stated
[3] = rats, 15 min, corrected for decay of 18F
[4] = rats, 15 min, not corrected for decay of 18F
[5] = rats, 30 min, corrected for decay of 18F
[6] = rats, 30 min, not corrected for decay of 18F
[7] = rats, 60 min (1 hour), not corrected for decay of 18F
[8] = rats, 60 min, corrected for decay of 18F
[9] = rats, 4 hours, corrected for decay of 18F
[10] = rats, 4 hours, not corrected for decay of 18F

With CCN(CC)C(=O)Cc1c(-c2ccc(OCCF)cc2)nc2ccc(Cl)cn12 [PBR102, 2-(2-(4-(2-fluoroethoxy)phenyl)-6-chloroimidazo[1,2-a]pyridin-3-yl)-N,N-diethylacetamide] the “Biodistribution: Bone” value [1] was 0.4 % ID/g, the “Biodistribution: Kidney” value [1] was 4.5 % ID/g and the “Biodistribution: Olfactory bulbs” value [1] was 0.56 % ID/g. For the same compound, the “Biodistribution: Adrenals” value (SD rats, 30 min, decay correction not stated) was 9 % ID/g, the “Biodistribution: Adrenals” value [2] was 11 % ID/g and the “Biodistribution: Bone” value [2] was 1.0 % ID/g. For the same compound, the “Biodistribution: Kidney” value [2] was 1.3 % ID/g, the “Biodistribution: Olfactory bulbs” value [2] was 0.40 % ID/g and the “Blood activity level / concentration in the blood over the 4 h study period” value (SD rats, throughout 15 min to 4 h) was 0.20%. The “Biodistribution: Bone” value [3] was 0.46 ± 0.04 % ID/g, the “Biodistribution: Heart” value [3] was 4.35 ± 0.33 % ID/g and the “Biodistribution: Lungs” value [3] was 14.30 ± 1.45 % ID/g. The “Biodistribution: Skin” value [3] was 0.24 ± 0.03 % ID/g, the “Biodistribution: Adrenals” value [4] was 8.30 ± 2.13 % ID/g and the “Biodistribution: Bladder” value [4] was 0.59 ± 0.14 % ID/g. For the same compound, the “Biodistribution: Blood” value [4] was 0.25 ± 0.06 % ID/g, the “Biodistribution: Bone” value [4] was 0.56 ± 0.07 % ID/g and the “Biodistribution: Brain” value [4] was 0.24 ± 0.03 % ID/g. The “Biodistribution: GIT” value [4] was 0.82 ± 0.11 % ID/g, the “Biodistribution: Heart” value [4] was 5.23 ± 0.33 % ID/g and the “Biodistribution: Kidney” value [4] was 3.90 ± 0.53 % ID/g. The “Biodistribution: Liver” value [4] was 0.75 ± 0.21 % ID/g, the “Biodistribution: Lungs” value [4] was 17.25 ± 1.70 % ID/g and the “Biodistribution: Muscle” value [4] was 0.49 ± 0.03 % ID/g. For the same compound, the “Biodistribution: Olfactory bulbs” value [4] was 0.68 ± 0.12 % ID/g, the “Biodistribution: Pancreas” value [4] was 1.74 ± 0.22 % ID/g and the “Biodistribution: Skin” value [4] was 0.29 ± 0.05 % ID/g. For the same compound, the “Biodistribution: Spleen” value [4] was 5.35 ± 0.89 % ID/g, the “Biodistribution: Stomach” value [4] was 0.80 ± 0.19 % ID/g and the “Biodistribution: Testes” value [4] was 0.22 ± 0.02 % ID/g. The “Biodistribution: Thymus” value [4] was 0.68 ± 0.17 % ID/g, the “Biodistribution: Thyroid” value [4] was 7.74 ± 1.90 % ID/g and the “Biodistribution: Bone” value [5] was 0.52 ± 0.05 % ID/g. The “Biodistribution: Heart” value [5] was 4.44 ± 0.26 % ID/g, the “Biodistribution: Lungs” value [5] was 12.10 ± 1.98 % ID/g and the “Biodistribution: Skin” value [5] was 0.31 ± 0.03 % ID/g. For the same compound, the “Biodistribution: Adrenals” value [6] was 9.75 ± 1.53 % ID/g, the “Biodistribution: Bladder” value [6] was 0.67 ± 0.16 % ID/g and the “Biodistribution: Blood” value [6] was 0.21 ± 0.03 % ID/g. For the same compound, the “Biodistribution: Bone” value [6] was 0.64 ± 0.12 % ID/g, the “Biodistribution: Brain” value [6] was 0.20 ± 0.04 % ID/g and the “Biodistribution: GIT” value [6] was 1.07 ± 0.26 % ID/g. The “Biodistribution: Heart” value [6] was 5.41 ± 0.71 % ID/g, the “Biodistribution: Kidney” value [6] was 3.95 ± 1.01 % ID/g and the “Biodistribution: Liver” value [6] was 0.63 ± 0.21 % ID/g. For the same compound, the “Biodistribution: Lungs” value [6] was 14.80 ± 3.67 % ID/g, the “Biodistribution: Muscle” value [6] was 0.46 ± 0.08 % ID/g and the “Biodistribution: Olfactory bulbs” value [6] was 0.44 ± 0.05 % ID/g. For the same compound, the “Biodistribution: Pancreas” value [6] was 1.42 ± 0.45 % ID/g, the “Biodistribution: Skin” value [6] was 0.37 ± 0.05 % ID/g and the “Biodistribution: Spleen” value [6] was 4.68 ± 0.90 % ID/g. The “Biodistribution: Stomach” value [6] was 0.71 ± 0.21 % ID/g, the “Biodistribution: Testes” value [6] was 0.29 ± 0.05 % ID/g and the “Biodistribution: Thymus” value [6] was 0.81 ± 0.06 % ID/g. For the same compound, the “Biodistribution: Thyroid” value [6] was 10.70 ± 2.08 % ID/g, the “Biodistribution: Adrenals” value [7] was 7.88 ± 1.86 % ID/g and the “Biodistribution: Bladder” value [7] was 0.60 ± 0.11 % ID/g. The “Biodistribution: Blood” value [7] was 0.20 ± 0.03 % ID/g, the “Biodistribution: Bone” value [7] was 0.73 ± 0.13 % ID/g and the “Biodistribution: Brain” value [7] was 0.20 ± 0.03 % ID/g. For the same compound, the “Biodistribution: GIT” value [7] was 1.09 ± 0.13 % ID/g, the “Biodistribution: Heart” value [7] was 5.32 ± 0.74 % ID/g and the “Biodistribution: Kidney” value [7] was 3.10 ± 0.51 % ID/g. The “Biodistribution: Liver” value [7] was 0.40 ± 0.04 % ID/g, the “Biodistribution: Lungs” value [7] was 13.44 ± 2.71 % ID/g and the “Biodistribution: Muscle” value [7] was 0.39 ± 0.07 % ID/g. The “Biodistribution: Olfactory bulbs” value [7] was 0.52 ± 0.05 % ID/g, the “Biodistribution: Pancreas” value [7] was 0.88 ± 0.18 % ID/g and the “Biodistribution: Skin” value [7] was 0.43 ± 0.07 % ID/g. The “Biodistribution: Spleen” value [7] was 3.89 ± 0.54 % ID/g, the “Biodistribution: Stomach” value [7] was 0.52 ± 0.13 % ID/g and the “Biodistribution: Testes” value [7] was 0.37 ± 0.06 % ID/g. The “Biodistribution: Thymus” value [7] was 0.91 ± 0.16 % ID/g, the “Biodistribution: Thyroid” value [7] was 11.55 ± 4.24 % ID/g and the “Biodistribution: Bone” value [8] was 0.64 ± 0.07 % ID/g. For the same compound, the “Biodistribution: Heart” value [8] was 4.62 ± 0.27 % ID/g, the “Biodistribution: Lungs” value [8] was 11.63 ± 1.52 % ID/g and the “Biodistribution: Skin” value [8] was 0.37 ± 0.03 % ID/g. The “Biodistribution: Bone” value [9] was 1.01 ± 0.09 % ID/g, the “Biodistribution: Heart” value [9] was 2.82 ± 0.15 % ID/g and the “Biodistribution: Lungs” value [9] was 8.09 ± 1.14 % ID/g. For the same compound, the “Biodistribution: Skin” value [9] was 0.49 ± 0.03 % ID/g, the “Biodistribution: Adrenals” value [10] was 9.77 ± 2.42 % ID/g and the “Biodistribution: Bladder” value [10] was 1.08 ± 0.14 % ID/g. For the same compound, the “Biodistribution: Blood” value [10] was 0.26 ± 0.03 % ID/g, the “Biodistribution: Bone” value [10] was 1.22 ± 0.22 % ID/g and the “Biodistribution: Brain” value [10] was 0.23 ± 0.03 % ID/g. The “Biodistribution: GIT” value [10] was 1.43 ± 0.34 % ID/g, the “Biodistribution: Heart” value [10] was 3.38 ± 0.44 % ID/g and the “Biodistribution: Kidney” value [10] was 1.61 ± 0.29 % ID/g. The “Biodistribution: Liver” value [10] was 0.34 ± 0.05 % ID/g, the “Biodistribution: Lungs” value [10] was 10.26 ± 1.09 % ID/g and the “Biodistribution: Muscle” value [10] was 0.27 ± 0.03 % ID/g. For the same compound, the “Biodistribution: Olfactory bulbs” value [10] was 0.50 ± 0.13 % ID/g, the “Biodistribution: Pancreas” value [10] was 0.49 ± 0.12 % ID/g and the “Biodistribution: Skin” value [10] was 0.59 ± 0.06 % ID/g. For the same compound, the “Biodistribution: Spleen” value [10] was 2.29 ± 0.50 % ID/g, the “Biodistribution: Stomach” value [10] was 0.49 ± 0.13 % ID/g and the “Biodistribution: Testes” value [10] was 0.52 ± 0.06 % ID/g. For the same compound, the “Biodistribution: Thymus” value [10] was 1.21 ± 0.27 % ID/g and the “Biodistribution: Thyroid” value [10] was 8.29 ± 3.22 % ID/g.
